Experimental data as given in the supplement of paper PMC10132981, “Formate overflow drives toxic folate trapping in MTHFD1 inhibited cancer cells” (Nature Metabolism, 2023).

Legend:
SW620 MTHFD2-/- = assay: cell viability relative to vehicle (resazurin, 96 h); higher = more viable; settings: base medium: RPMI + dialysed FBS
Description: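 SW620 WT or MTHFD2-/- cells were treated for 96 h with a compound dilution series (log10 M) in RPMI with normal or dialysed FBS. Viability was read by resazurin and is given as % of vehicle.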

SW620 = assay: cell viability relative to lowest-dose well (resazurin, 96 h); higher = more viable; settings: RPMI + 10% FBS
Summary of the method: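 Compounds from 10 mM DMSO stocks were dispensed as dilution series onto HCT116 (500 cells/well) or SW620 (1,000 cells/well) cells growing in 384-well plates in 50 µl RPMI, 10% FBS and a metabolite supplement. Plates were incubated 96 h at 37 °C, 5% CO2, then resazurin (10 µg ml^−1) was added and its conversion to resorufin read by fluorescence at 595 nm after 5 h. Viability is shown as percent of the lowest-dose well for independent replicate cultures. Viability was read by resazurin-to-resorufin conversion and normalised to the lowest-dose vehicle well (=100%).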

Cc1c(N2CCN(C)[C@@H](C)C2)ccc2c3c(c(=O)oc12)CN(C(=O)c1ccc(NS(C)(=O)=O)c(OC(F)(F)F)c1)CC3
SW620 MTHFD2-/-
Settings | cell viability [%]
log10 compound concentration (M): -5, supplement / serum: 50μM Hypoxanthine | 95.4
log10 compound concentration (M): -5, supplement / serum: 50μM Thymidine + 50μM Hypoxanthine | 108
log10 compound concentration (M): -5, supplement / serum: 50μMThymidine | 13.3
log10 compound concentration (M): -5, supplement / serum: Hypoxanthine | 85.7
log10 compound concentration (M): -5, supplement / serum: Hypoxanthine+Sodium Formate | 51.9
log10 compound concentration (M): -5, supplement / serum: No metabolite | 15.4
log10 compound concentration (M): -5, supplement / serum: Sodium Formate | 87.3
log10 compound concentration (M): -5, supplement / serum: Vehicle | 11.5
log10 compound concentration (M): -5.47712, supplement / serum: 50μM Hypoxanthine | 77.9
log10 compound concentration (M): -5.47712, supplement / serum: 50μM Thymidine + 50μM Hypoxanthine | 98
log10 compound concentration (M): -5.47712, supplement / serum: 50μMThymidine | 14.1
log10 compound concentration (M): -5.47712, supplement / serum: Hypoxanthine | 94.2
log10 compound concentration (M): -5.47712, supplement / serum: Hypoxanthine+Sodium Formate | 90.1
log10 compound concentration (M): -5.47712, supplement / serum: No metabolite | 14.8
log10 compound concentration (M): -5.47712, supplement / serum: Sodium Formate | 95.7
log10 compound concentration (M): -5.47712, supplement / serum: Vehicle | 13.5
log10 compound concentration (M): -5.95424, supplement / serum: 50μM Hypoxanthine | 99.7
log10 compound concentration (M): -5.95424, supplement / serum: 50μM Thymidine + 50μM Hypoxanthine | 111
log10 compound concentration (M): -5.95424, supplement / serum: 50μMThymidine | 20.9
log10 compound concentration (M): -5.95424, supplement / serum: Hypoxanthine | 101
log10 compound concentration (M): -5.95424, supplement / serum: Hypoxanthine+Sodium Formate | 99
log10 compound concentration (M): -5.95424, supplement / serum: No metabolite | 20.5
log10 compound concentration (M): -5.95424, supplement / serum: Sodium Formate | 97.1
log10 compound concentration (M): -5.95424, supplement / serum: Vehicle | 20.3
log10 compound concentration (M): -6.43136, supplement / serum: 50μM Hypoxanthine | 109
log10 compound concentration (M): -6.43136, supplement / serum: 50μM Thymidine + 50μM Hypoxanthine | 114
log10 compound concentration (M): -6.43136, supplement / serum: 50μMThymidine | 41.5
log10 compound concentration (M): -6.43136, supplement / serum: Hypoxanthine | 98
log10 compound concentration (M): -6.43136, supplement / serum: Hypoxanthine+Sodium Formate | 104
log10 compound concentration (M): -6.43136, supplement / serum: No metabolite | 43.5
log10 compound concentration (M): -6.43136, supplement / serum: Sodium Formate | 98.9
log10 compound concentration (M): -6.43136, supplement / serum: Vehicle | 44.8
log10 compound concentration (M): -6.90849, supplement / serum: 50μM Hypoxanthine | 99.4
log10 compound concentration (M): -6.90849, supplement / serum: 50μM Thymidine + 50μM Hypoxanthine | 101
log10 compound concentration (M): -6.90849, supplement / serum: 50μMThymidine | 59.6
log10 compound concentration (M): -6.90849, supplement / serum: Hypoxanthine | 99.5
log10 compound concentration (M): -6.90849, supplement / serum: Hypoxanthine+Sodium Formate | 98.9
log10 compound concentration (M): -6.90849, supplement / serum: No metabolite | 56.7
log10 compound concentration (M): -6.90849, supplement / serum: Sodium Formate | 100
log10 compound concentration (M): -6.90849, supplement / serum: Vehicle | 74.4
log10 compound concentration (M): -7.38561, supplement / serum: 50μM Hypoxanthine | 67.2
log10 compound concentration (M): -7.38561, supplement / serum: 50μM Thymidine + 50μM Hypoxanthine | 110
log10 compound concentration (M): -7.38561, supplement / serum: 50μMThymidine | 61.2
log10 compound concentration (M): -7.38561, supplement / serum: Hypoxanthine | 85.2
log10 compound concentration (M): -7.38561, supplement / serum: Hypoxanthine+Sodium Formate | 83
log10 compound concentration (M): -7.38561, supplement / serum: No metabolite | 50
log10 compound concentration (M): -7.38561, supplement / serum: Sodium Formate | 76.9
log10 compound concentration (M): -7.38561, supplement / serum: Vehicle | 56.4
log10 compound concentration (M): -7.86273, supplement / serum: 50μM Hypoxanthine | 104
log10 compound concentration (M): -7.86273, supplement / serum: 50μM Thymidine + 50μM Hypoxanthine | 105
log10 compound concentration (M): -7.86273, supplement / serum: 50μMThymidine | 67.2
log10 compound concentration (M): -7.86273, supplement / serum: Hypoxanthine | 88.9
log10 compound concentration (M): -7.86273, supplement / serum: Hypoxanthine+Sodium Formate | 94.5
log10 compound concentration (M): -7.86273, supplement / serum: No metabolite | 72.2
log10 compound concentration (M): -7.86273, supplement / serum: Sodium Formate | 94.4
log10 compound concentration (M): -7.86273, supplement / serum: Vehicle | 80.2
log10 compound concentration (M): -8.33985, supplement / serum: 50μM Hypoxanthine | 104
log10 compound concentration (M): -8.33985, supplement / serum: 50μM Thymidine + 50μM Hypoxanthine | 95
log10 compound concentration (M): -8.33985, supplement / serum: 50μMThymidine | 77.3
log10 compound concentration (M): -8.33985, supplement / serum: Hypoxanthine | 93.9
log10 compound concentration (M): -8.33985, supplement / serum: Hypoxanthine+Sodium Formate | 101
log10 compound concentration (M): -8.33985, supplement / serum: No metabolite | 90
log10 compound concentration (M): -8.33985, supplement / serum: Sodium Formate | 92.2
log10 compound concentration (M): -8.33985, supplement / serum: Vehicle | 92.8
log10 compound concentration (M): -8.81697, supplement / serum: 50μM Hypoxanthine | 114
log10 compound concentration (M): -8.81697, supplement / serum: 50μM Thymidine + 50μM Hypoxanthine | 113
log10 compound concentration (M): -8.81697, supplement / serum: 50μMThymidine | 94
log10 compound concentration (M): -8.81697, supplement / serum: Hypoxanthine | 94.5
log10 compound concentration (M): -8.81697, supplement / serum: Hypoxanthine+Sodium Formate | 95.1
log10 compound concentration (M): -8.81697, supplement / serum: No metabolite | 96.4
log10 compound concentration (M): -8.81697, supplement / serum: Sodium Formate | 95.3
log10 compound concentration (M): -8.81697, supplement / serum: Vehicle | 94.3
log10 compound concentration (M): -9.29409, supplement / serum: 50μM Hypoxanthine | 96.5
log10 compound concentration (M): -9.29409, supplement / serum: 50μM Thymidine + 50μM Hypoxanthine | 113
log10 compound concentration (M): -9.29409, supplement / serum: 50μMThymidine | 95.6
log10 compound concentration (M): -9.29409, supplement / serum: Hypoxanthine | 95.9
log10 compound concentration (M): -9.29409, supplement / serum: Hypoxanthine+Sodium Formate | 94.7
log10 compound concentration (M): -9.29409, supplement / serum: No metabolite | 104
log10 compound concentration (M): -9.29409, supplement / serum: Sodium Formate | 98.8
log10 compound concentration (M): -9.29409, supplement / serum: Vehicle | 97
log10 compound concentration (M): -9.77121, supplement / serum: 50μM Hypoxanthine | 106
log10 compound concentration (M): -9.77121, supplement / serum: 50μM Thymidine + 50μM Hypoxanthine | 124
log10 compound concentration (M): -9.77121, supplement / serum: 50μMThymidine | 92.7
log10 compound concentration (M): -9.77121, supplement / serum: Hypoxanthine | 95
log10 compound concentration (M): -9.77121, supplement / serum: Hypoxanthine+Sodium Formate | 98.8
log10 compound concentration (M): -9.77121, supplement / serum: No metabolite | 110
log10 compound concentration (M): -9.77121, supplement / serum: Sodium Formate | 99.3
log10 compound concentration (M): -9.77121, supplement / serum: Vehicle | 96.2

cell viability [%], SW620
Settings | 0.001 µM | 0.00301 µM | 0.00903 µM | 0.0271 µM | 0.0816 µM | 0.245 µM | 0.737 µM | 2.21 µM | 6.65 µM | 20 µM
metabolite supplement: 1mM sodium formate | 100 | 98.27 | 97.8 | 100 | 101 | 97.7 | 95.9 | 89 | 62.4 | 39.2
metabolite supplement: 50uM thymidine | 99.1 | 97.2 | 96 | 99.6 | 97.1 | 85.4 | 69.5 | 61.5 | 58.1 | 54.3
metabolite supplement: 50uM thymidine + 1mM sodium formate | 99.4 | 102 | 101 | 102 | 105 | 104 | 100 | 102 | 101 | 89.9
metabolite supplement: 50uM thymidine + 250uM hypoxanthine | 100 | 102.3 | 102 | 104 | 107 | 107.8 | 108 | 106 | 102 | 88.6
metabolite supplement: 250uM hypoxanthine | 100 | 96.6 | 98.9 | 99.5 | 97.4 | 99.9 | 97 | 84.7 | 66.4 | 44.2
metabolite supplement: vehicle | 97 | 97.3 | 96.4 | 97.6 | 95.4 | 86.4 | 71.13 | 63.2 | 60.8 | 55

O=c1[nH]cc(F)c(=O)[nH]1 [5-fluorouracil]
cell viability [%], SW620
Settings | metabolite supplement: 50uM thymidine | metabolite supplement: 50uM thymidine + 250uM hypoxanthine | metabolite supplement: 250uM hypoxanthine | metabolite supplement: vehicle
0.0001 M | 6.17 | 8.1 | 8.23 | 7.07
0.001 µM | 100 | 100 | 100 | 100
0.01 µM | 103 | 99.7 | 103 | 104
0.0278 µM | 99.6 | 99.4 | 102 | 101
0.0774 µM | 97.9 | 101 | 98 | 102
0.215 µM | 94.8 | 99.9 | 99.2 | 100
0.599 µM | 93.3 | 97.1 | 101 | 99.9
1.67 µM | 77.5 | 87.9 | 92 | 84.1
4.64 µM | 52.2 | 65.6 | 66.7 | 56.8
12.9 µM | 26.5 | 37 | 38.5 | 30.8
35.9 µM | 11.9 | 16 | 16.8 | 13.2
